Reference: ChEMBL document CHEMBL1201862, “PubChem BioAssay data set” (2004)
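A five-concentration, 48-hour dose response in 96-well plates underlies each endpoint, interpolated linearly between surrounding concentrations. GI50 is the concentration that inhibits growth by half.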 The source made the active and inactive calls. No stated cut-off is given here; in the data, active = GI50 up to about 1.1 µM and inactive = higher.

Tests used:
Assay in all cases: NCI tumour cell line growth inhibition, 48 h
OVCAR-3 = system: OVCAR-3
HCT-15 = system: HCT-15
MDA-MB-231 = system: MDA-MB-231
IGROV-1 = system: IGROV-1
MDA-MB-435 = system: MDA-MB-435
OVCAR-4 = system: OVCAR-4
RXF 393 = system: RXF 393
CCRF-CEM = system: CCRF-CEM
A498 = system: A498
U-251 = system: U-251
UO-31 = system: UO-31
M14 = system: M14
SK-OV-3 = system: SK-OV-3
786-0 = system: 786-0
TK-10 = system: TK-10
SN12C = system: SN12C
OVCAR-8 = system: OVCAR-8
Malme-3M = system: Malme-3M
HT-29 = system: HT-29

SMILES | GI50 (OVCAR-3) | GI50 (HCT-15) [µM] | GI50 (MDA-MB-231) | GI50 (IGROV-1) | GI50 (MDA-MB-435) | GI50 (OVCAR-4) | GI50 (RXF 393) | GI50 (CCRF-CEM) | GI50 (A498) | GI50 (U-251) | GI50 (UO-31) | GI50 (M14) | GI50 (SK-OV-3) | GI50 (786-0) | GI50 (TK-10) | GI50 (SN12C) | GI50 (OVCAR-8) | GI50 (Malme-3M) | GI50 (HT-29)
O=C1c2sc(-c3ccc(Cl)cc3)cc2-n2cccc21 | > 100 µM (inactive) | > 100 | > 100 µM (inactive) | > 100 µM (inactive) | > 100 µM (inactive) | > 100 µM (inactive) | > 100 µM (inactive) | > 100 µM (inactive) | > 100 µM (inactive) | > 100 µM (inactive) | > 100 µM (inactive) | > 100 µM (inactive) | > 100 µM (inactive) | > 100 µM (inactive) | > 100 µM (inactive) | > 100 µM (inactive) | > 100 µM (inactive) | > 100 µM (inactive) | > 100 µM (inactive)
O=Cc1ccc(-c2ccc(-c3ccc(CO)s3)o2)s1 | 0.372 µM (active) | 24.4 | 22 µM (inactive) | 0.547 µM (active) | 8.32 µM (inactive) | 0.318 µM (active) | 5.74 µM (inactive) | 1.58 µM (inactive) | 0.104 µM (active) | 1.91 µM (inactive) | 15.6 µM (inactive) | 20.4 µM (inactive) | 19.7 µM (inactive) | 2.47 µM (inactive) | 0.237 µM (active) | 17.7 µM (inactive) | 7.28 µM (inactive) | 18.2 µM (inactive) | 7.83 µM (inactive)
O=S(=O)(c1ccc(Br)cc1)n1c2ccc(Br)cc2c2nc3ccccc3nc21 | > 100 µM (inactive) | > 100 | 50.5 µM (inactive) | 78.7 µM (inactive) | > 100 µM (inactive) | 67.9 µM (inactive) | 20.1 µM (inactive) | 14.1 µM (inactive) | > 100 µM (inactive) | 23.2 µM (inactive) | > 100 µM (inactive) | > 100 µM (inactive) | 52 µM (inactive) | 31.6 µM (inactive) | 82 µM (inactive) | > 100 µM (inactive) | 55.5 µM (inactive) | > 100 µM (inactive) | > 100 µM (inactive)
Cc1cc(O)nc2c3c(ccc12)OC(C)(C)C=C3 | 4.28 µM (inactive) | 4.85 | 5.78 µM (inactive) | 6.44 µM (inactive) | 1.82 µM (inactive) | 18.6 µM (inactive) | 5.25 µM (inactive) | 3.71 µM (inactive) | 10.2 µM (inactive) | 3.11 µM (inactive) | 8.18 µM (inactive) | 5.53 µM (inactive) | 11.3 µM (inactive) | 6.7 µM (inactive) | > 100 µM (inactive) | 5.98 µM (inactive) | 7.59 µM (inactive) | 13.2 µM (inactive) | 5.66 µM (inactive)
O=C1Nc2c(Cl)cc(Cl)cc2/C1=N/Nc1ccccc1[N+](=O)[O-] | 50.7 µM (inactive) | 72.1 | 18.3 µM (inactive) | 23.8 µM (inactive) | > 100 µM (inactive) | 29 µM (inactive) | 14.2 µM (inactive) | 46 µM (inactive) | 55.7 µM (inactive) | 6.85 µM (inactive) | > 100 µM (inactive) | 39.3 µM (inactive) | 30.1 µM (inactive) | 5.75 µM (inactive) | 22.6 µM (inactive) | 85.9 µM (inactive) | 30.3 µM (inactive) | 29.2 µM (inactive) | > 100 µM (inactive)
COc1ccc2cc(-c3ccc(OC)c(OC)c3)c(=O)oc2c1 | > 100 µM (inactive) | > 100 | 48.6 µM (inactive) | > 100 µM (inactive) | > 100 µM (inactive) | > 100 µM (inactive) | 21.4 µM (inactive) | > 100 µM (inactive) | 96.8 µM (inactive) | 57.4 µM (inactive) | > 100 µM (inactive) | > 100 µM (inactive) | > 100 µM (inactive) | 52 µM (inactive) | > 100 µM (inactive) | > 100 µM (inactive) | > 100 µM (inactive) | > 100 µM (inactive) | > 100 µM (inactive)
C=C(C)C1Cc2c(cc3c(c2O)c(=O)c2ccccc2n3C)O1 (stereo not drawn) | 12.6 µM (inactive) | 2.75 | 2.2 µM (inactive) | 1.87 µM (inactive) | 5.78 µM (inactive) | 6.81 µM (inactive) | 2.75 µM (inactive) | 0.724 µM (active) | 10.1 µM (inactive) | 3.33 µM (inactive) | 1.84 µM (inactive) | 3 µM (inactive) | 4.97 µM (inactive) | 1.51 µM (inactive) | 13.9 µM (inactive) | 2.27 µM (inactive) | 1.84 µM (inactive) | 1.63 µM (inactive) | 2.61 µM (inactive)
